Experimental data: US20080280883A1, “Muscarinic Receptor Antagonists” (priority 2004, published 2008)

System: bladder pressure and salivation
Assay: In vivo experiments using anesthetized rabbit (carbachol challenge)
Conditions: carbachol 1.5 ug/kg intra-arterial, from ID50 values, expressed as fold of selectivity of oxybutynin

Row | SMILES | Selectivity for bladder pressure inhibition vs. salivation
1 | CC1=NCCN1CC(=O)[C@](O)(c1ccccc1)C1CCCC1 [Compound No. 85, (2R)-1-Cyclopentyl-1-hydroxy-3-(2-methyl-4,5-dihydro-imidazol-1-yl)-1-phenyl-propan-2-one] | about 2
2 | CN1CCC(N(C)CC(O)C(O)(c2ccccc2)C2CCCC2)CC1 (centres unmarked) [Compound No. 24, 1-Cyclopentyl-3-[methyl-(1-methyl-piperidin-4-yl)-amino]-1-phenyl-propane-1,2-diol] | about 2
